Results taken from US20250304911A1, “CYSTEINE PROTOTROPHY” (Pfizer Inc., priority 2022, published 2025).

How the values were obtained:
GNMT cell pool = experiment: Sequential batch culture of GNMT cell pool with or without BME; format: cell-based, Chinese hamster; settings: cysteine-free CD-CHO, 50 uM BME, within one passage, FIG. 8
Protocol: (§1) GNMT cell pools and CBS+CTH cell pools that had been adapted to grown in cysteine-free and homocysteine-free conditions as described in Example 7 were cultivated in 3-day or 4-day sequential batch cultures in cysteine-free CD-CHO media with or without 50 uM BME with the aim of testing the growth and adapting the cells to BME free conditions.

CBS+CTH cell pool = experiment: Sequential batch culture of CBS+CTH cell pool with or without BME; format: cell-based, Chinese hamster; settings: cysteine-free CD-CHO, 50 uM BME, FIG. 8
Protocol: as §1

GNMT clone 16 = experiment: Batch shake flask maintenance culture with oleic acid and ferroptosis inducers, GNMT clone 16; settings: for Viability / Viable Cell Density: Clone 16; for Growth and viability in iron and zinc supplemented cultures compared to untreated: 12 uM ferrous sulphate, 10 uM zinc sulfate, with or without prior OA
Protocol: (§2) Two GNMT clones, clone 9 and 16, were cultivated for two passages in cysteine-free CD-CHO medium with and without oleic acid. In the oleic acid supplemented conditions, first passage received 1 micromolar (uM) of oleic acid and the second passage received 10 uM of oleic acid. In the third passage, the clones were cultivated in absence of OA but growth in presence of ferroptosis inducers, iron (12 uM ferrous sulphate) and zinc (10 uM zinc sulfate) to understand impact of prior culture in OA on ferroptosis.

GNMT clone 9 = experiment: Batch shake flask maintenance culture with oleic acid and ferroptosis inducers, GNMT clone 9; settings: for Viability / Viable Cell Density: Clone 9
Protocol: as §2

GNMT clone 15 = experiment: pH-adjusted fedbatch culture with Fer1, OA or Vitamin K1, GNMT clone 15; format: cell-based, Chinese hamster; settings: for Viabilities by the end of the culture, treated versus untreated: 1 uM Fer1 or 10 uM OA on days 0, 5 and 6, FIG. 11A
Protocol: (§3) Two GNMT clones (overexpressing CBS, CTH and GNMT), clone 15 and 19, were cultivated in pH-adjusted fedbatch cultures in multiple shake flasks. Cells were seeded at 0.5E6 cell/mL in cysteine-free internal basal medium and were fed with 1% cysteine-free, nutrient rich medium daily starting day 4. For the first set of shake flasks, cultures for each clone were treated with 1 uM of Fer1 or 10 uM of OA on days 0, 5 and 6, or left untreated. For the second set of shake flasks, cultures for each clone were treated with 10 uM of Vitamin K1 on days, 0, 4, 5 and 6. Viable cell densities and viabilities were measured on various days during the fedbatch culture.

[1] = tested on: GNMT cells (CHO cell pools overexpressing CBS, CTH and GNMT); experiment: Growth of GNMT cell pool in L-homocysteine supplemented cysteine free CD CHO medium; format: cell-based, Chinese hamster; settings: FIG. 4
Protocol: (§4) Next, the growth of CHO cell pools overexpressing CBS and CTH (referred to as “CBS+CTH” cells) or overexpressing CBS, CTH and GNMT (referred to as “GNMT” cells) was evaluated in cysteine free CD CHO medium or L-homocysteine supplemented cysteine free CD CHO medium. […] Subsequently, as described in more detail in Example 7, the CBS+CTH and the GNMT cell pools were adapted to grow in L-homocysteine free conditions. For both the CBS+CTH and GNMT cell pools, gene expression levels of CTH, CBS, GNMT and MTR were measured before and after adaptation to L-homocysteine free conditions (Table 5).

[2] = tested on: CBS+CTH cells (CHO cell pools overexpressing CBS and CTH); experiment: Growth of CBS+CTH cell pool in L-homocysteine supplemented cysteine free CD CHO medium; format: cell-based, Chinese hamster; settings: FIG. 4
Protocol: as §4

GNMT clone 19 = experiment: pH-adjusted fedbatch culture with Fer1, OA or Vitamin K1, GNMT clone 19; format: cell-based, Chinese hamster; settings: 10 uM Vitamin K1 on days 0, 4, 5 and 6, FIG. 11B
Protocol: as §3

[3] = +10 uM OA (prior passages), Day 0, CD CHO alone, + 12 uM FeSO4 or + 10 uM ZnSO4
[4] = +10 uM OA (prior passages), Day 3, CD CHO alone, + 12 uM FeSO4 or + 10 uM ZnSO4
[5] = +10 uM OA (prior passages), Day 4, CD CHO alone, + 12 uM FeSO4 or + 10 uM ZnSO4
[6] = No OA, Day 0, CD CHO + 12 uM FeSO4 or + 10 uM ZnSO4
[7] = No OA, Day 3, CD CHO + 12 uM FeSO4 or + 10 uM ZnSO4
[8] = No OA, Day 4, CD CHO + 12 uM FeSO4 or + 10 uM ZnSO4

## OCCS [BME, beta mercaptoethanol]
GNMT cell pool
  Growth and viability in BME free conditions versus with BME: comparable
CBS+CTH cell pool
  Growth and viabilities between BME-free and BME containing conditions: significantly different growth and viabilities

## O=S(=O)([O-])[O-].[Fe+2] [FeSO4, ferrous sulphate]
GNMT clone 16; [3]
  Viability: 99.6%
  Viable Cell Density: 3.63 E5 c/mL
GNMT clone 16; [4]
  Viability: 98.6%
  Viable Cell Density: 19.21 E5 c/mL
GNMT clone 16; [5]
  Viability: 99.2%
  Viable Cell Density: 40.8 E5 c/mL
GNMT clone 16; [6]
  Viability: 98.7%
  Viable Cell Density: 4.02 E5 c/mL
GNMT clone 16; [7]
  Viability: 98.5%
  Viable Cell Density: 14.07 E5 c/mL
GNMT clone 16; [8]
  Viability: 99.1%
  Viable Cell Density: 31.09 E5 c/mL
GNMT clone 16; clone 16, third passage
  Growth and viability in iron and zinc supplemented cultures compared to untreated: lower
GNMT clone 9; [3]
  Viability: 99.6%
  Viable Cell Density: 3.45 E5 c/mL
GNMT clone 9; [4]
  Viability: 99.2%
  Viable Cell Density: 21.94 E5 c/mL
GNMT clone 9; [5]
  Viability: 99.1%
  Viable Cell Density: 38.38 E5 c/mL
GNMT clone 9; [6]
  Viability: 100%
  Viable Cell Density: 3.54 E5 c/mL
GNMT clone 9; [7]
  Viability: 99.2%
  Viable Cell Density: 19.65 E5 c/mL
GNMT clone 9; [8]
  Viability: 99.3%
  Viable Cell Density: 39.74 E5 c/mL

## CCOC(=O)c1ccc(NC2CCCCC2)c(N)c1 [Fer1, ferrostatin 1]
GNMT clone 15
  Viabilities by the end of the culture, treated versus untreated: slightly higher viabilities

## NC(CCS)C(=O)O [L-homocysteine, 2-amino-4-sulfanylbutanoic acid]
[1]
  Growth in L-homocysteine supplemented cysteine free medium: exhibited growth
[2]
  Growth in L-homocysteine supplemented cysteine free medium: exhibited growth

## CCCCCCCC/C=C\CCCCCCCC(=O)O [OA, oleic acid]
GNMT clone 16; [3]
  Viable Cell Density: 4.44 E5 c/mL
GNMT clone 16; [4]
  Viable Cell Density: 22.52 E5 c/mL
GNMT clone 16; [5]
  Viable Cell Density: 48.33 E5 c/mL
GNMT clone 16; clone 16, third passage, prior passages with 1 uM then 10 uM oleic acid
  Growth and viabilities of OA exposed versus unexposed conditions: higher growth and viabilities
GNMT clone 9; [3]
  Viable Cell Density: 3.85 E5 c/mL
GNMT clone 9; [4]
  Viable Cell Density: 21.99 E5 c/mL
GNMT clone 9; [5]
  Viable Cell Density: 42.9 E5 c/mL
GNMT clone 9; clone 9, third passage, prior passages with 1 uM then 10 uM oleic acid
  Benefit of exposure to OA on growth and viability: not observed
GNMT clone 15
  Viabilities by the end of the culture, treated versus untreated: slightly higher viabilities

## CC1=C(C/C=C(\C)CCC[C@H](C)CCC[C@H](C)CCCC(C)C)C(=O)c2ccccc2C1=O [Vitamin K1]
GNMT clone 15; 10 uM Vitamin K1 on days 0, 4, 5 and 6, FIG. 11B
  Growth and viability with Vitamin K1 supplementation: improved growth and viability
GNMT clone 19
  Growth and viability with Vitamin K1 supplementation: improved growth and viability

## O=S(=O)([O-])[O-].[Zn+2] [ZnSO4, zinc sulfate]
GNMT clone 16; [3]
  Viability: 99.6%
  Viable Cell Density: 3.84 E5 c/mL
GNMT clone 16; [4]
  Viability: 96.2%
  Viable Cell Density: 13.62 E5 c/mL
GNMT clone 16; [5]
  Viability: 96%
  Viable Cell Density: 32.19 E5 c/mL
GNMT clone 16; [6]
  Viability: 99.2%
  Viable Cell Density: 4.31 E5 c/mL
GNMT clone 16; [7]
  Viability: 94.9%
  Viable Cell Density: 12.27 E5 c/mL
GNMT clone 16; [8]
  Viability: 94.1%
  Viable Cell Density: 23.99 E5 c/mL
GNMT clone 16; clone 16, third passage
  Growth and viability in iron and zinc supplemented cultures compared to untreated: lower
GNMT clone 9; [3]
  Viability: 98.9%
  Viable Cell Density: 3.11 E5 c/mL
GNMT clone 9; [4]
  Viability: 97.7%
  Viable Cell Density: 16.78 E5 c/mL
GNMT clone 9; [5]
  Viability: 96.4%
  Viable Cell Density: 30.16 E5 c/mL
GNMT clone 9; [6]
  Viability: 100%
  Viable Cell Density: 3.55 E5 c/mL
GNMT clone 9; [7]
  Viability: 97.9%
  Viable Cell Density: 17.26 E5 c/mL
GNMT clone 9; [8]
  Viability: 96.7%
  Viable Cell Density: 32.29 E5 c/mL
